Reference: patent US20260042731A1, “(2,4-DICHLOROPHENOXY)ACETIC ACID ANALOGS” (CORTEVA AGRISCIENCE LLC, priority 2022, published 2026)
Where two headings read alike, the source gives them in different places.

Experiments:
[1] = tested on: Amaranthus rudis (AMATA), tall water hemp; assay: Postemergence herbicide evaluation, growth of Amaranthus rudis (AMATA); format: in vivo; details: Amaranthus tuberculatus, post-emergence, read-out: Ave. AMATA
[2] = tested on: Ambrosia artemisiifolia (AMBEL), common ragweed; assay: Postemergence herbicide evaluation, growth of Ambrosia artemisiifolia (AMBEL); format: in vivo; details: Ambrosia artemisiifolia, post-emergence, read-out: AVE. AMBEL
[3] = tested on: Abutilon theophrasti (ABUTH), velvetleaf; assay: Postemergence herbicide evaluation, growth of Abutilon theophrasti (ABUTH); format: in vivo; details: Abutilon theophrasti, post-emergence, read-out: AVE. ABUTH
[4] = tested on: Chenopodium album (CHEAL), common lambsquarters; assay: Postemergence herbicide evaluation, growth of Chenopodium album (CHEAL); format: in vivo; details: Chenopodium album, post-emergence, read-out: Ave. CHEAL
[5] = tested on: glyphosate resistant Conyza canadensis (L.) (ERICA), horseweed; assay: Postemergence herbicide evaluation, growth of Conyza canadensis (ERICA); format: in vivo; details: Erigeron canadensis, post-emergence, read-out: Ave. ERICA
[6] = Volatility of compounds measured by thermogravimetric analysis (TGA); format: physicochemical
[7] = tested on: weeds (ABUTH, AMATA, AMBEL, CHEAL, ERICA); assay: Postemergence herbicide evaluation, overall average % weed control across ABUTH, AMATA, AMBEL, CHEAL, ERICA; format: in vivo; details: post-emergence, average over the five weeds, read-out: Overall Ave % Weed Control; for pest or weed control at 280 g/ha: 280 g ae/ha; for pest or weed control at 560 g/ha: 560 g ae/ha
[8] = 168 h, 280 g ae/ha, 7 DAA, percent reduction in plant size relative to untreated control
[9] = 168 h, 560 g ae/ha, 7 DAA, percent reduction in plant size relative to untreated control
[10] = 336 h, 280 g ae/ha, 14 DAA, percent reduction in plant size relative to untreated control
[11] = 336 h, 560 g ae/ha, 14 DAA, percent reduction in plant size relative to untreated control
[12] = 504 h, 280 g ae/ha, 21 DAA, percent reduction in plant size relative to untreated control
[13] = 504 h, 560 g ae/ha, 21 DAA, percent reduction in plant size relative to untreated control

O=C(COc1ccc(Cl)cc1Cl)Oc1ccc(Cl)cc1 [Compound E5, 4-Chlorophenyl 2-(2,4-dichlorophenoxy)acetate]
pest or weed control at 280 g/ha ([1]; 168 h): 73% | pest or weed control at 560 g/ha ([1]; 168 h): 78% | pest or weed control at 280 g/ha ([1]; 336 h): 75% | pest or weed control at 560 g/ha ([1]; 336 h): 89% | pest or weed control at 280 g/ha ([1]; 504 h): 78% | pest or weed control at 560 g/ha ([1]; 504 h): 86% | pest or weed control at 280 g/ha ([2]; 168 h): 68% | pest or weed control at 560 g/ha ([2]; 168 h): 75% | pest or weed control at 280 g/ha ([2]; 336 h): 89% | pest or weed control at 560 g/ha ([2]; 336 h): 93% | pest or weed control at 280 g/ha ([2]; 504 h): 90% | pest or weed control at 560 g/ha ([2]; 504 h): 98% | pest or weed control at 280 g/ha ([3]; 168 h): 78% | pest or weed control at 560 g/ha ([3]; 168 h): 85% | pest or weed control at 280 g/ha ([3]; 336 h): 93% | pest or weed control at 560 g/ha ([3]; 336 h): 93% | pest or weed control at 280 g/ha ([3]; 504 h): 98% | pest or weed control at 560 g/ha ([3]; 504 h): 97% | pest or weed control at 280 g/ha ([4]; 168 h): 70% | pest or weed control at 560 g/ha ([4]; 168 h): 68% | pest or weed control at 280 g/ha ([4]; 336 h): 73% | pest or weed control at 560 g/ha ([4]; 336 h): 83% | pest or weed control at 280 g/ha ([4]; 504 h): 80% | pest or weed control at 560 g/ha ([4]; 504 h): 94% | pest or weed control at 280 g/ha ([5]; 168 h): 68% | pest or weed control at 560 g/ha ([5]; 168 h): 70% | pest or weed control at 280 g/ha ([5]; 336 h): 90% | pest or weed control at 560 g/ha ([5]; 336 h): 83% | pest or weed control at 280 g/ha ([5]; 504 h): 95% | pest or weed control at 560 g/ha ([5]; 504 h): 90% | TGA Data (rate of weight loss, volatility) [6]: 0.6 µg/min | pest or weed control at 280 g/ha ([7]; 168 h, 7 DAA): 71% | pest or weed control at 560 g/ha ([7]; 168 h, 7 DAA): 75% | pest or weed control at 280 g/ha ([7]; 336 h, 14 DAA): 84% | pest or weed control at 560 g/ha ([7]; 336 h, 14 DAA): 88% | pest or weed control at 280 g/ha ([7]; 504 h, 21 DAA): 88% | pest or weed control at 560 g/ha ([7]; 504 h, 21 DAA): 93%

Cc1cc(OC(=O)COc2ccc(Cl)cc2Cl)n(C)n1 [Compound E6, 1,3-Dimethyl-1H-pyrazol-5-yl 2-(2,4-dichlorophenoxy)acetate]
pest or weed control at 280 g/ha [1, 8]: 70% | pest or weed control at 560 g/ha [1, 9]: 75% | pest or weed control at 280 g/ha [1, 10]: 82% | pest or weed control at 560 g/ha [1, 11]: 80% | pest or weed control at 280 g/ha [1, 12]: 70% | pest or weed control at 560 g/ha [1, 13]: 77% | pest or weed control at 280 g/ha [2, 8]: 65% | pest or weed control at 560 g/ha [2, 9]: 73% | pest or weed control at 280 g/ha [2, 10]: 80% | pest or weed control at 560 g/ha [2, 11]: 88% | pest or weed control at 280 g/ha [2, 12]: 93% | pest or weed control at 560 g/ha [2, 13]: 96% | pest or weed control at 280 g/ha [3, 8]: 83% | pest or weed control at 560 g/ha [3, 9]: 83% | pest or weed control at 280 g/ha [3, 10]: 88% | pest or weed control at 560 g/ha [3, 11]: 93% | pest or weed control at 280 g/ha [3, 12]: 96% | pest or weed control at 560 g/ha [3, 13]: 94% | pest or weed control at 280 g/ha [4, 8]: 63% | pest or weed control at 560 g/ha [4, 9]: 70% | pest or weed control at 280 g/ha [4, 10]: 65% | pest or weed control at 560 g/ha [4, 11]: 85% | pest or weed control at 280 g/ha [4, 12]: 58% | pest or weed control at 560 g/ha [4, 13]: 90% | pest or weed control at 280 g/ha [5, 8]: 63% | pest or weed control at 560 g/ha [5, 9]: 65% | pest or weed control at 280 g/ha [5, 10]: 83% | pest or weed control at 560 g/ha [5, 11]: 83% | pest or weed control at 280 g/ha [5, 12]: 96% | pest or weed control at 560 g/ha [5, 13]: 95% | TGA Data (rate of weight loss, volatility) [6]: 1 µg/min | pest or weed control at 280 g/ha ([7]; 168 h, 7 DAA): 69% | pest or weed control at 560 g/ha ([7]; 168 h, 7 DAA): 73% | pest or weed control at 280 g/ha ([7]; 336 h, 14 DAA): 79% | pest or weed control at 560 g/ha ([7]; 336 h, 14 DAA): 86% | pest or weed control at 280 g/ha ([7]; 504 h, 21 DAA): 82% | pest or weed control at 560 g/ha ([7]; 504 h, 21 DAA): 90%

O=C(COc1ccc(Cl)cc1Cl)OCOC(=O)c1ccccc1 [Compound E7, (2-(2,4-Dichlorophenoxy)acetoxy)methyl benzoate]
pest or weed control at 280 g/ha ([1]; 168 h): 78% | pest or weed control at 560 g/ha ([1]; 168 h): 80% | pest or weed control at 280 g/ha ([1]; 336 h): 95% | pest or weed control at 560 g/ha ([1]; 336 h): 85% | pest or weed control at 280 g/ha ([1]; 504 h): 93% | pest or weed control at 560 g/ha ([1]; 504 h): 89% | pest or weed control at 280 g/ha ([2]; 168 h): 63% | pest or weed control at 560 g/ha ([2]; 168 h): 78% | pest or weed control at 280 g/ha ([2]; 336 h): 93% | pest or weed control at 560 g/ha ([2]; 336 h): 97% | pest or weed control at 280 g/ha ([2]; 504 h): 96% | pest or weed control at 560 g/ha ([2]; 504 h): 100% | pest or weed control at 280 g/ha ([3]; 168 h): 80% | pest or weed control at 560 g/ha ([3]; 168 h): 85% | pest or weed control at 280 g/ha ([3]; 336 h): 84% | pest or weed control at 560 g/ha ([3]; 336 h): 89% | pest or weed control at 280 g/ha ([3]; 504 h): 90% | pest or weed control at 560 g/ha ([3]; 504 h): 92% | pest or weed control at 280 g/ha ([4]; 168 h): 68% | pest or weed control at 560 g/ha ([4]; 168 h): 75% | pest or weed control at 280 g/ha ([4]; 336 h): 73% | pest or weed control at 560 g/ha ([4]; 336 h): 93% | pest or weed control at 280 g/ha ([4]; 504 h): 70% | pest or weed control at 560 g/ha ([4]; 504 h): 70% | pest or weed control at 280 g/ha ([5]; 168 h): 65% | pest or weed control at 560 g/ha ([5]; 168 h): 70% | pest or weed control at 280 g/ha ([5]; 336 h): 83% | pest or weed control at 560 g/ha ([5]; 336 h): 88% | pest or weed control at 280 g/ha ([5]; 504 h): 93% | pest or weed control at 560 g/ha ([5]; 504 h): 95% | TGA Data (rate of weight loss, volatility) [6]: 1.5 µg/min | pest or weed control at 280 g/ha ([7]; 168 h, 7 DAA): 71% | pest or weed control at 560 g/ha ([7]; 168 h, 7 DAA): 78% | pest or weed control at 280 g/ha ([7]; 336 h, 14 DAA): 85% | pest or weed control at 560 g/ha ([7]; 336 h, 14 DAA): 90% | pest or weed control at 280 g/ha ([7]; 504 h, 21 DAA): 88% | pest or weed control at 560 g/ha ([7]; 504 h, 21 DAA): 89%
